Eleven compounds from publication PMC11497058, “Ginsenoside Rg3 Restores Mitochondrial Cardiolipin Homeostasis via GRB2 to Prevent Parkinson's Disease” (Advanced Science, 2024) can be followed below.

One experiment has as its target GRB2 (Homo sapiens, UniProt P62993). Description: biochemical. The arrangement: Surface plasmon resonance screen of compounds binding to GRB2, KD. The text has this:
To further validate the universal impact of TRKA‐GRB2 axis‐targeted molecular in enhancing CL expression and ameliorating PD, we employed Surface Plasmon Resonance (SPR) technology^[ [58] ^] to screen compounds that bind to GRB2 (Figure 8a). Subsequently, we identified 11 compounds with a KD value at the […] (Table S9, Supporting Information). The viability of SH‐SY5Y cells exposed to mpp+ or 6‐OHDA increased upon treatment with TDF and [compound left out] (Figure S13a and b, Supporting Information). TDF acts as a prodrug of tenofovir, a nucleotide reverse transcriptase inhibitor.^[ [59] ^] On the other hand, [compound left out] is specially formulated for ophthalmological steroid‐based treatments.^[ [60] ^] Considering its oral administration capability, we selected TDF for further research (Figure S13c and d, Supporting Information). TDF facilitated the clearance of overexpressed A53T‐αSyn in SH‐SY5Y cells (Figure S13e and f, Supporting Information) and promoted the interaction between GRB2 and TRKA without affecting the interaction between GRB2 and EGFR in these cells (Figure 8b–d). Treatment with TDF enhanced CRLS1 expression and restored the decreased mitochondrial CL levels caused by A53T‐αSyn in SH‐SY5Y cells. However, knockdown of GRB2 or TRKA in SH‐SY5Y cells attenuated TDF‐induced effect (Figure 8e–g). Moreover, TDF increased TRKA phosphorylation, ERK phosphorylation, and CRLS1 expression, while GW441756 […] these changes (Figure S13g–j, Supporting Information). When SCH772984 was employed, it blocked the ability of TDF to increase ERK phosphorylation and CRLS1 expression (Figure S13k–m, Supporting Information). The impairment of exercise ability was alleviated following TDF (80 mg kg^−1) treatment, resulting in an increase in the distance travelled by A53T‐αSyn‐treated mice (Figure 8h,i). […] Western blotting was performed to evaluate the expression of TRKA and EGFR in cell lysates immunoprecipitated with an anti‐GRB2 antibody (b). Quantification of TRKA levels (c) and EGFR levels (d). e,f) Representative western blot images of CRLS1, GRB2, TRKA in SH‐SY5Y cells treated with TDF (10 µM) or DMSO (0.1%) for 24 h after transfection with Scramble, GRB2 or TRKA siRNAs for 24 h. Quantification of CRLS1 levels (f). g) SH‐SY5Y cells were treated with TDF (10 µM) or DMSO (0.1%) for 24 h after transfection with Scramble, GRB2 or TRKA siRNAs for 24 h. Quantification of mitochondrial CL in SH‐SY5Y cells. Three independent experiments per condition were performed in (b–g). h) Movement track in the open field test. i) Total distance travelled in the open field. j) Time required to descend the pole. k) Time required to fall off the rotarod. (n = 10 mice per group in (h–k). l) Immunohistochemical staining of TH^+ neurons (scale bar = 100 µm). m) Quantification of TH^+ neurons. (n = 3 mice per group in l, m). Data are normalised to those of the DMSO group (c,d) and the Scramble_DMSO group (f). Mean ± standard error of the mean is presented. *p < 0.05, **p < 0.01, ***p < 0.001, ****p < 0.0001, ns, not significant. Student's two‐tailed unpaired t‐test (c,d), two‐way ANOVA with Sidak's multiple comparisons test (f,g,i,j,k and m). Source data are provided in the Source Data file.

The target of experiment [1] is T1, Growth Factor Receptor-Bound Protein 2 (GRB2) (Homo sapiens, UniProt P62993).
T1 construct: Recombinant His-tagged GRB2 (pET-28a, E. coli)
Kind of experiment: bio-layer interferometry (ForteBio Octet); supported by thermal shift assay (CETSA) and LiP-SMap. It counts as binding. (BLI is a label-free optical method that tracks binding on a fibre tip over time.)

pKd: −log10 of the molar value. Structures can show the parent of a compound that is named as a salt.

Chain of GRB2 (P62993 whole entry): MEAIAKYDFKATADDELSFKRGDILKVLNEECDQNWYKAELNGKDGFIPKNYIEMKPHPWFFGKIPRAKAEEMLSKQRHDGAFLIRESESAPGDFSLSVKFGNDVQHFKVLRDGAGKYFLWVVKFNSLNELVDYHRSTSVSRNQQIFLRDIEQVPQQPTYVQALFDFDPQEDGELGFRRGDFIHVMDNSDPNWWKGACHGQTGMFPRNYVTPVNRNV
T1 sequence (P62993 whole entry): as above

By pKd is commonly meant −log10 of the Kd, conventionally taken in molar units. `COC(c1ccccc1)(c1ccccc1)[C@H](Oc1nc(C)cc(C)n1)C(=O)O` [Ambrisentan] showed a pKd on GRB2 of 6.72.

For the compound `CCCC(=O)O[C@]1(C(=O)CCl)[C@@H](C)C[C@H]2[C@@H]3CCC4=CC(=O)C=C[C@]4(C)[C@@]3(F)C(=O)C[C@@]21C` [Clobetasone butyrate], on GRB2, the pKd is 7.00.

As for `Nc1nc(=O)n([C@@H]2CS[C@H](CO)O2)cc1F` [Emtricitabine], the pKd on GRB2 is 7.82.

Take `NC(=O)N1c2ccccc2CC(=O)c2ccccc21` [Oxcarbazepine]: on GRB2, the negative-log Kd (pKd) is 6.62.

As to `C/C(=C\CO)CCC[C@H](C)CCC[C@H](C)CCCC(C)C` [Phytol], at GRB2, the negative logarithm of the Kd (pKd) was 5.83.

In turn, `CC(C)N(CCNC(=O)CN1CCCC1=O)C(C)C` [Pramiracetam] had a negative logarithm of the Kd (pKd) at GRB2 of 7.00.

Regarding `CC(C)=CCC[C@](C)(O)[C@H]1CC[C@]2(C)[C@@H]1[C@H](O)C[C@@H]1[C@@]3(C)CC[C@H](O[C@@H]4O[C@H](CO)[C@@H](O)[C@H](O)[C@H]4O[C@@H]4O[C@H](CO)[C@@H](O)[C@H](O)[C@H]4O)C(C)(C)[C@@H]3CC[C@]12C` [Rg3, Ginsenoside Rg3], in experiment [1], the pKd was 6.06.

Consider `CC(N)C12CC3CC(CC(C3)C1)C2` (centres unmarked) [Rimantadine], for which, on GRB2, the pKd was 6.80.

On GRB2, `O=C1c2ccccc2-c2n[nH]c3cccc1c23` [SP600125] had a pKd of 6.58.

On to `CC(C)OC(=O)OCOP(=O)(CO[C@H](C)Cn1cnc2c(N)ncnc21)OCOC(=O)OC(C)C` [TDF, Tenofovir Disoproxil Fumarate], for which, on GRB2, the pKd is 7.13.

For `O=C(O)c1ccc2nc(-c3cc(Cl)cc(Cl)c3)oc2c1` [tafamidis], at GRB2, the pKd is 5.43.
